# Measurements reported in patent US9890166B2, “Imidazopyrrolidine derivatives and their use in the treatment of disease” (NOVARTIS AG, priority 2013, dated 2018).
# Columns and labels:
# [1] = target: nuclear BRD4-NUT foci in HCC2494 NUT midline carcinoma cells (Homo sapiens, UniProt O60885); assay: cell-based
# BRD2 (His-Brd2(60-472)) = BRD2 (His-Brd2(60-472)) (Homo sapiens (Human), UniProt P25440); assay: TR-FRET in-vitro binding assay for BRD2; conditions: single determination or n ≧ 2 independent determinations, read-out: Biochemical IC50 BRD2
# How it was run: (§1)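 Compounds were serially diluted over eight concentrations and added to wells. TR-FRET signal was then measured.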
# BRD4 (His-Brd4(44-477)) = BRD4 (His-Brd4(44-477)) (Homo sapiens (Human), UniProt O60885); assay: TR-FRET in-vitro binding assay for BRD4; conditions: single determination or n ≧ 2 independent determinations, read-out: Biochemical IC50 BRD4
# How it was run: as §1
# K-562 cells = assay: Cell growth inhibition assay (CellTiter-Glo), K-562; conditions: for GI50: Homo sapiens, K562, read-out: K-562 GI50; for K-562 TGI: K-562 cells, total growth inhibition, CellTiter-Glo;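 on all read-outs here: cellular ATP measured by luminescence after 4 days of exposure, 3-fold dilution series from 10 µM, DMSO vehicle-treated cells define 100%, cell-free medium wells −100%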
# THP-1 cells = assay: Cell growth inhibition assay (CellTiter-Glo), THP-1; conditions: for GI50: Homo sapiens, THP-1, read-out: THP-1 GI50; for THP-1 TGI: THP-1 cells, total growth inhibition, CellTiter-Glo;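 on all read-outs here: viability read as cellular ATP luminescence after 4 days, 3-fold dilution series from 10 µM, DMSO vehicle-treated cells taken as 100%, cell-free medium wells as −100%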
# BRD3 (His-Brd3(20-477)) = BRD3 (His-Brd3(20-477)) (Homo sapiens (Human), UniProt Q15059); assay: TR-FRET in-vitro binding assay for BRD3; conditions: single determination or n ≧ 2 independent determinations, read-out: Biochemical IC50 BRD3
# How it was run: as §1
# [2] = target: CREBBP bromodomain (His-CREBBP(1081-1197)) (Homo sapiens (Human), UniProt Q92793); assay: AlphaScreen in-vitro binding assay for CREBBP; conditions: single determination or n ≧ 2 independent determinations, read-out: Biochemical IC50 CREBBP
# How it was run: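 Reactions at 30 °C for 35 min, then Ni-chelate acceptor and streptavidin donor beads in HEPES pH 7.5, NaCl, Tween20, BSA, 60 min at room temperature. Eight-point compound series; IC50 by non-linear regression of percent inhibition.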
# MV-4-11 cells = assay: Cell growth inhibition assay (CellTiter-Glo), MV-4-11; conditions: for GI50: Homo sapiens, MV4-11, read-out: MV-4-11 GI50; for MV-4-11 TGI: MV-4-11 cells, total growth inhibition, CellTiter-Glo;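 on all read-outs here: cellular ATP luminescence after 4 days, 3-fold dilution series from 10 µM top dose, vehicle (0.1% DMSO) set to 100%, cell-free medium set to −100%, day 0 corrected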
# CREBBP bromodomain (His-CREBBP(1081-1197)), sequence (Q92793 1081-1197): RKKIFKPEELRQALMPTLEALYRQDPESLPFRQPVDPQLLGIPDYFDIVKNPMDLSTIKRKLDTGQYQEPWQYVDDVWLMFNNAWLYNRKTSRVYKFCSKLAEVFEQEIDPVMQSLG
# BRD2 (His-Brd2(60-472)), sequence (P25440 60-472): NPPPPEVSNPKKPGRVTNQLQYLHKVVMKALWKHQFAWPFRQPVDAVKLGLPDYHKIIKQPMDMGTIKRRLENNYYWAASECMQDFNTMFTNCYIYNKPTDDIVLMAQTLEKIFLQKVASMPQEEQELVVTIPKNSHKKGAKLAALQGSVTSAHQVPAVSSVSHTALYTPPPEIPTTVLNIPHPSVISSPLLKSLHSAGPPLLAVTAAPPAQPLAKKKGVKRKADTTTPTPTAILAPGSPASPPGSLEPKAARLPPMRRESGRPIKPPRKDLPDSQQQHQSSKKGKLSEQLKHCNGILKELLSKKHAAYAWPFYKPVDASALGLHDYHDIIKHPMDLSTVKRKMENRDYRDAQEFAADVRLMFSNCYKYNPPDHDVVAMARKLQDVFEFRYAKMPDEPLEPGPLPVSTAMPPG
# BRD3 (His-Brd3(20-477)), sequence (Q15059 20-477): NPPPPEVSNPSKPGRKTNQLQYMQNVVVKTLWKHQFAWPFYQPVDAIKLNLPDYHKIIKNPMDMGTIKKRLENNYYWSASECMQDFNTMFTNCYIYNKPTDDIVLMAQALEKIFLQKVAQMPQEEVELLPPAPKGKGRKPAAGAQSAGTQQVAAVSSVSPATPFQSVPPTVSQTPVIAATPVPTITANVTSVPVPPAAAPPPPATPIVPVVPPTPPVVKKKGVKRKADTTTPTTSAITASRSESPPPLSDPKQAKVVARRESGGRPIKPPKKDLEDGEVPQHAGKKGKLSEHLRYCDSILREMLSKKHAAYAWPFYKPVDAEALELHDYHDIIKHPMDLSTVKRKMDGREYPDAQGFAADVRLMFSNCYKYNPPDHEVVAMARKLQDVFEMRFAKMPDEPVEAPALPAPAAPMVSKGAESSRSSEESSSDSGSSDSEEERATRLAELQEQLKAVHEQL
SMILES,IC50 [1] [nM],IC50 (BRD2 (His-Brd2(60-472))) [nM],IC50 (BRD4 (His-Brd4(44-477))) [nM],GI50 (K-562 cells) [nM],K-562 TGI (K-562 cells) [nM],GI50 (THP-1 cells) [nM],THP-1 TGI (THP-1 cells) [nM],IC50 (BRD3 (His-Brd3(20-477))) [nM],IC50 [2] [nM],GI50 (MV-4-11 cells) [nM],MV-4-11 TGI (MV-4-11 cells) [nM]
"COc1ccc(-c2nc3c(n2C)C(c2ccc(Cl)cc2)N(c2cc(C)c4nnc(C)n4c2)C3=O)cn1 (stereo not shown) [Example 16, 6-(4-chlorophenyl)-5-(3,8-dimethyl-[1,2,4]triazolo[4,3-a]pyridin-6-yl)-2-(6-methoxypyridin-3-yl)-1-methyl-5,6-dihydropyrrolo[3,4-d]imidazol-4(1H)-one]",263,49,45,562,>10000,220,370,47,> 24000,74.3,125.5
"COc1cc(N2C(=O)c3nc(C4CC4)n(C(C)C)c3C2c2ccc(Cl)cc2)cn2c(C)nnc12 (stereo not shown) [Example 17, 6-(4-chlorophenyl)-2-cyclopropyl-1-isopropyl-5-(8-methoxy-3-methyl-[1,2,4]triazolo[4,3-a]pyridin-6-yl)-5,6-dihydropyrrolo[3,4-d]imidazol-4(1H)-one]",323,100,41,1080,>10000,322,704.5,75,> 37000,166,316.5
"CCn1c(-c2ccc(OC)nc2)nc2c1C(=O)N(c1cc(C)c(=O)n(C)c1)C2c1ccc(Cl)cc1 (stereo not shown) [Example 38, 6-(4-chlorophenyl)-5-(1,5-dimethyl-6-oxo-1,6-dihydropyridin-3-yl)-3-ethyl-2-(6-methoxypyridin-3-yl)-5,6-dihydropyrrolo[3,4-d]imidazol-4(3H)-one]",24.5,92.5,78,271,>10000,74.9,118,76,2000,30.1,48.9
"CCn1c(-c2ccc(OC)nc2)nc2c1C(=O)N(c1cc(C)c(=O)n(C)c1)[C@@H]2c1ccc(Cl)cc1 [Example 39, (R)-6-(4-chlorophenyl)-5-(1,5-dimethyl-6-oxo-1,6-dihydropyridin-3-yl)-3-ethyl-2-(6-methoxypyridin-3-yl)-5,6-dihydropyrrolo[3,4-d]imidazol-4(3H)-one]",21.1,24,28.5,72,>10000,26.2,48.1,32,910,11.7,23.9
"CCn1c(-c2cccnc2OC)nc2c1C(=O)N(c1cc(C)c(=O)n(C)c1)[C@@H]2c1ccc(Cl)cc1 [Example 41, (R)-6-(4-chlorophenyl)-5-(1,5-dimethyl-6-oxo-1,6-dihydropyridin-3-yl)-3-ethyl-2-(2-methoxypyridin-3-yl)-5,6-dihydropyrrolo[3,4-d]imidazol-4(3H)-one]",7,15.5,16,45.2,>10000,13.8,30.6,17,430,6.72,11
"CCn1c(-c2ccnn2C)nc2c1C(=O)N(c1cc(C)c(=O)n(C)c1)C2c1ccc(Cl)cc1 (stereo not shown) [Example 42, 6-(4-chlorophenyl)-5-(1,5-dimethyl-6-oxo-1,6-dihydropyridin-3-yl)-3-ethyl-2-(1-methyl-1H-pyrazol-5-yl)-5,6-dihydropyrrolo[3,4-d]imidazol-4(3H)-one]",64.2,65,69,274,>10000,74.3,126,61,3400,53.5,102.3
"Cc1cc(N2C(=O)c3nc(-c4nccs4)n(C4CC4)c3C2c2ccc(Cl)cc2)cn(C)c1=O (stereo not shown) [Example 43, 6-(4-chlorophenyl)-1-cyclopropyl-5-(1,5-dimethyl-6-oxo-1,6-dihydropyridin-3-yl)-2-(thiazol-2-yl)-5,6-dihydropyrrolo[3,4-d]imidazol-4(1H)-one]",52.9,59.5,64,356,>10000,90.5,162.5,55,32300,66.2,99.55
"COc1ncccc1-c1nc2c(n1C(C)C)C(=O)N(c1cc(C)c(=O)n(C)c1)[C@@H]2c1ccc(Cl)cc1 [Example 45, (R)-6-(4-chlorophenyl)-5-(1,5-dimethyl-6-oxo-1,6-dihydropyridin-3-yl)-3-isopropyl-2-(2-methoxypyridin-3-yl)-5,6-dihydropyrrolo[3,4-d]imidazol-4(3H)-one]",49.7,17,16,126,>10000,32.8,60.5,17,1000,22.5,43.9
"Cc1cc(N2C(=O)c3[nH]c(C4CC4)nc3C2c2ccc(Cl)cc2)cn(C)c1=O (stereo not shown) [Example 46, 6-(4-chlorophenyl)-2-cyclopropyl-5-(1,5-dimethyl-6-oxo-1,6-dihydropyridin-3-yl)-5,6-dihydropyrrolo[3,4-d]imidazol-4(3H)-one]",226,84,78,499,>10000,145,305,77,2000,65.3,108
"Cc1cc(N2C(=O)c3[nH]c(C4CC4)nc3[C@H]2c2ccc(Cl)cc2)cn(C)c1=O [Example 47, R-6-(4-chlorophenyl)-2-cyclopropyl-5-(1,5-dimethyl-6-oxo-1,6-dihydropyridin-3-yl)-5,6-dihydropyrrolo[3,4-d]imidazol-4(3H)-one]",81.3,39,40,305,>10000,74.3,141,38,1100,42.5,102.8
"COc1ccc(-c2nc3c(n2C(C)C)C(c2ccc(Cl)cc2)N(c2cc(OC)c4nnc(C)n4c2)C3=O)cn1 (stereo not shown) [Example 52, 6-(4-chlorophenyl)-1-isopropyl-5-(8-methoxy-3-methyl-[1,2,4]triazolo[4,3-a]pyridin-6-yl)-2-(6-methoxypyridin-3-yl)-5,6-dihydropyrrolo[3,4-d]imidazol-4(1H)-one]",710,80,35,2480,>10000,981,1920,63,> 37000,271,409
